PubChem BioAssay (NCI)
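Where inhibition never reached the appropriate level, the endpoint shown equals the highest concentration tested. Otherwise, values were interpolated linearly from a five-concentration, 48-hour dose response in 96-well plates. TGI marks complete inhibition of growth.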

What was measured:
Assay in all cases: NCI-60 cell line screen, 48 h
HCT-15 colon = test system: HCT-15 colon
RPMI-8226 leukemia = test system: RPMI-8226 leukemia
KM12 colon = test system: KM12 colon
HS 578T breast = test system: HS 578T breast
SNB-19 CNS = test system: SNB-19 CNS
CAKI-1 renal = test system: CAKI-1 renal
MOLT-4 leukemia = test system: MOLT-4 leukemia
NCI-H226 lung = test system: NCI-H226 lung
COLO 205 colon = test system: COLO 205 colon
TK-10 renal = test system: TK-10 renal

SMILES | TGI (HCT-15 colon) [µM] | TGI (RPMI-8226 leukemia) [µM] | TGI (KM12 colon) [µM] | TGI (HS 578T breast) [µM] | TGI (SNB-19 CNS) [µM] | TGI (CAKI-1 renal) [µM] | TGI (MOLT-4 leukemia) [µM] | TGI (NCI-H226 lung) [µM] | TGI (COLO 205 colon) [µM] | TGI (TK-10 renal) [µM]
Cc1ccc([N+](=O)[O-])cc1S(=O)(=O)Nc1ccc(C2=NN(S(=O)(=O)c3cc([N+](=O)[O-])ccc3C)C(c3ccco3)C2)cc1 (configuration not stated) | > 100 | > 100 | > 100 | > 100 | > 100 | > 100 | > 100 | > 100 | > 100 | –
CN(C)Cc1cc(C(=O)/C=C/c2ccc(F)cc2)cc(CN(C)C)c1O | 30.3 | > 100 | 48.9 | 86.9 | > 100 | 67.3 | 53.8 | > 100 | – | > 100
Cc1nc2cccc([N+](=O)[O-])c2n1CCCN(C)C | > 100 | > 100 | > 100 | > 100 | > 100 | > 100 | – | > 100 | > 100 | > 100
Cc1c(-c2ccc(O)c(O)c2)oc(=O)c2c(O)cccc12 | 17.7 | 50 | 24.2 | 23.9 | 36.1 | 36 | > 100 | – | 30.1 | 67
COc1cc(C(=O)OCCn2[nH]c(-c3ccc(Cl)cc3)nc2=S)cc(OC)c1OC | > 100 | – | > 100 | > 100 | > 100 | > 100 | > 100 | > 100 | > 100 | > 100
Cc1ccc(C)c(COCCOCn2c(=O)[nH]c(=O)c3cc(Br)ccc32)c1 | > 100 | – | > 100 | – | > 100 | > 100 | > 100 | > 100 | > 100 | > 100
O=C1C=C2CC[C@H]3[C@@H]4CC[C@H](Oc5c6ccccc6nc6ccccc56)[C@H]4CC[C@@H]3[C@H]2CC1 | > 100 | – | > 100 | > 100 | > 100 | > 100 | – | > 100 | > 100 | > 100
C=CCN1C[C@@H](C)N([C@@H](c2ccc(C(=O)N(CC)CC)cc2)c2cccc(OC)c2)C[C@@H]1C | > 100 | > 100 | > 100 | > 100 | > 100 | > 100 | > 100 | > 100 | > 100 | –
O=C(CCc1ccc(O)cc1)NCCCNC(=O)CCc1ccc(O)cc1 | > 100 | > 100 | > 100 | > 100 | > 100 | > 100 | > 100 | > 100 | > 100 | –
CCCCS(=O)CC(CO)NC(=O)/C=C/c1c(C)[nH]c(=O)[nH]c1=O (configuration not stated) | 183 | 59.2 | 49.7 | – | 24.8 | 114 | 50 | 34 | 53.4 | –
Nc1ccc(OCCCc2c(-c3ccccc3)nc(N)[nH]c2=O)cc1 | > 100 | > 100 | > 100 | > 100 | > 100 | > 100 | > 100 | > 100 | > 100 | –
CC#CCCCC1(C)CCCNC1=S (configuration not stated) | > 10 | – | > 10 | > 10 | > 10 | – | > 10 | – | – | > 10
O=[p+]1c2ccccc2[nH]c2ccccc21 | > 100 | – | > 100 | – | > 100 | > 100 | > 100 | > 100 | > 100 | > 100
O=C1Nc2ccccc2/C1=C\c1c(Cl)nc2n1CCS2 | 64.5 | > 100 | > 100 | 40.1 | > 100 | > 100 | 97.9 | – | 38.5 | 49.9
NC(=O)SCC(=O)Nc1ccc2ncccc2c1 | > 100 | 76.9 | > 100 | > 100 | > 100 | > 100 | – | > 100 | > 100 | > 100
Cc1cc(=O)c2ccccc2n1CCCCCCCCCCn1c(C)cc(=O)c2ccccc21 | > 100 | – | 29.4 | 47.7 | > 100 | 36.1 | 21.7 | 46.1 | 51.9 | 30.2
CCn1c(=O)c2c3cc(OC(C)=O)ccc3oc2c2ccc(OC(C)=O)cc21 | > 100 | – | > 100 | > 100 | > 100 | > 100 | > 100 | > 100 | 55.6 | > 100
COc1ccc(-c2cc(-c3ccccc3)nc3c2CC(=O)Nc2ccccc2-3)cc1OC | > 100 | > 100 | > 100 | – | > 100 | > 100 | > 100 | > 100 | > 100 | > 100
CCCCc1c2c(nc3c1CC/C(=C\c1ccc([N+](=O)[O-])cc1)C3=O)CCCC2 | 1.16 | 5.69 | 3.52 | – | 3.67 | – | 7.72 | 6.5 | 6.63 | 3.17
Cc1ccc(S(=O)(=O)N2CCCSCCN(S(=O)(=O)c3ccc(C)cc3)CCCSCC2)cc1 | – | > 100 | > 100 | > 100 | > 100 | – | > 100 | > 100 | > 100 | > 100
O=c1c2c3c(sc2nc2n1N=C(c1ccc([N+](=O)[O-])cc1)CS2)CCCC3 | > 100 | > 100 | > 100 | > 100 | – | > 100 | > 100 | > 100 | > 100 | > 100
COc1ccc(-c2nc3c(nc2-c2ccc(OC)cc2)N(C)S(=O)(=O)N=C3N)cc1 | > 100 | 40.6 | 92.2 | – | > 100 | 94.9 | 48.5 | – | 32.5 | > 100
NC(=S)N/N=C1\CCCCC1C(O)(C(F)(F)Cl)C(F)(F)Cl (configuration not stated) | > 10 | > 10 | > 10 | > 10 | > 10 | – | > 10 | > 10 | > 10 | > 10
